{"source": "patent US20250222024A1", "about": "“METHOD AND COMPOSITION FOR TREATING CORONA VIRUS, INFLUENZA, AND ACUTE RESPIRATORY DISTRESS SYNDROME” (ReversPAH LLC, priority 2020, published 2025)", "origin": "cited, not measured here", "key": {"[1]": {"test_system": "Sugen/hypoxia-induced PAH", "conditions": "rat"}, "SARS-CoV-2": {"test_system": "SARS-CoV-2", "conditions": "in vitro"}, "[2]": {"test_system": "carrageenan-induced lung injury", "conditions": "for TNF-alpha levels in the lung / nitrite and nitrate levels (stable NO metabolites) in pleural exudates: 4 hours after carrageenan administration, versus CAR group, n=8 mice; for TNF-alpha levels in the lung: FIG. 10(a); for nitrite and nitrate levels (stable NO metabolites) in pleural exudates: FIG. 10(b)"}, "[3]": {"test_system": "monocrotaline-induced pulmonary hypertension", "conditions": "through the bone morphogenetic protein signaling pathway"}, "[4]": {"test_system": "silica-induced lung inflammation and fibrosis", "conditions": "by inhibiting T-helper 17 cell (TH 17)"}}, "data": [{"molecule": "S=C(S)N1CCCC1", "note": "[pyrrolidine dithiocarbamate]", "values": [{"measurement": "reversal of established angio-obliterative PAH", "setting": "[1]", "result": "reverse established angio-obliterative PAH"}]}, {"molecule": "Ivermectin", "values": [{"measurement": "replication of SARS-CoV-2", "setting": "SARS-CoV-2", "result": "inhibits the replication of SARS-CoV-2 in vitro"}]}, {"molecule": "CCN(CC)C(=O)N1CCN(C)CC1", "note": "[DEC, Diethylcarbamazine]", "values": [{"measurement": "TNF-alpha levels in the lung", "setting": "[2]", "result": "significantly reduced the TNF-alpha levels"}, {"measurement": "nitrite and nitrate levels (stable NO metabolites) in pleural exudates", "setting": "[2]", "result": "significantly reduced the nitrite and nitrate level"}, {"measurement": "neutrophil infiltration into the lung (myeloperoxidase marker)", "setting": "[2]; mouse acute lung injury model, DEC pretreatment, FIG. 9", "result": "significantly inhibited neutrophil infiltration"}]}, {"molecule": "O=C(O)[C@H]1O[C@@H](Oc2cc3oc(-c4ccccc4)cc(=O)c3c(O)c2O)[C@H](O)[C@@H](O)[C@@H]1O", "note": "[Baicalin]", "values": [{"measurement": "monocrotaline-induced pulmonary hypertension", "setting": "[3]", "result": "attenuate monocrotaline-induced pulmonary hypertension"}, {"measurement": "silica-induced lung inflammation and fibrosis", "setting": "[4]", "result": "alleviate silica-induced lung inflammation and fibrosis"}]}, {"molecule": "COc1ccc2c(c1)c(CC(=O)O)c(C)n2C(=O)c1ccc(Cl)cc1", "note": "[INDO]", "values": [{"measurement": "TNF-alpha levels in the lung", "setting": "[2]", "result": "did not reduce the TNF-alpha level"}, {"measurement": "nitrite and nitrate levels (stable NO metabolites) in pleural exudates", "setting": "[2]", "result": "significantly reduced the nitrite and nitrate level"}]}]}
